Test results: ChEMBL document CHEMBL4715815, “Design, synthesis and biological evaluation of 7H-pyrrolo[2,3-d]pyrimidin-4-amine derivatives as selective Btk inhibitors with improved pharmacokinetic properties for the treatment of rheumatoid arthritis” (Eur J Med Chem, 2018)
The source made the active and inactive calls. No cut-off for these calls is given here.

Key:
HEK293 = assay: Cytotoxicity against human HEK293 cells assessed as reduction in cell viability incubated for 72 hrs by MTT assay; format: ADME, cell-based; conditions: HEK293, 72 h
THP-1 = assay: Cytotoxicity against human THP-1 cells assessed as reduction in cell viability incubated for 72 hrs by MTT assay; format: ADME, cell-based; conditions: THP-1, 72 h
L02 = assay: Cytotoxicity against human L02 cells assessed as reduction in cell viability incubated for 72 hrs by MTT assay; format: ADME, cell-based; conditions: L02, 72 h
[1] = target: T1, Tyrosine-protein kinase BTK (Homo sapiens, UniProt Q06187); assay: Inhibition of BTK in human U2932 cells assessed as reduction in BTK Y223 phosphorylation incubated for 1 hr by Western blot analysis; format: cell-based; conditions: dose 0.03-10 µM
T1 sequence (Q06187 whole entry): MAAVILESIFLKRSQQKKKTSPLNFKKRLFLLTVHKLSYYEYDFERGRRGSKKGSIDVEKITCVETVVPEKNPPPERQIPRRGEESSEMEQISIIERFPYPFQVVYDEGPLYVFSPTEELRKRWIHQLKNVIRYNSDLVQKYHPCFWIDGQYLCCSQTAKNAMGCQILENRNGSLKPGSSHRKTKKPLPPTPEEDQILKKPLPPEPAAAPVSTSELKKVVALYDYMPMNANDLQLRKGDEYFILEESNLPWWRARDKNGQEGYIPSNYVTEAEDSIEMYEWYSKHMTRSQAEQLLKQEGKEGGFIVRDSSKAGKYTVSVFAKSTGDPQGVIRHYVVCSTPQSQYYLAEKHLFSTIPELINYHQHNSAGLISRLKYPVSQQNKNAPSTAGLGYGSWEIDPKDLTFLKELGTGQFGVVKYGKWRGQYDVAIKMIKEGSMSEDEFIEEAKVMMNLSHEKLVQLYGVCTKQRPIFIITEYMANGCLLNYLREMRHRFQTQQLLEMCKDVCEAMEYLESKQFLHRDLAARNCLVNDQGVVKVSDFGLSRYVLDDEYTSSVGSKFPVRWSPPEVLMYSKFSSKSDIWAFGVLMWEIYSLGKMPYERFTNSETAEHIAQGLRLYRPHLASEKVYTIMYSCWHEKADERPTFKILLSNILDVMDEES

[2] = target: T1, Tyrosine-protein kinase BTK; assay: Inhibition of BTK in human Daudi cells assessed as reduction in BTK Y551 phosphorylation at 0.03 to 10 uM incubated for 1 hr by Western blot analysis; format: cell-based; conditions: dose 0.03-10 µM
[3] = target: T1, Tyrosine-protein kinase BTK; assay: Inhibition of BTK in human Daudi cells assessed as reduction in PLCgamma2 Y1217 phosphorylation at 0.03 to 10 uM incubated for 1 hr by Western blot analysis; format: cell-based; conditions: dose 0.03-10 µM
[4] = Cmax in Sprague-Dawley rat at 3 mg/kg, iv measured up to 24 hrs by LC-MS/MS analysis; format: ADME, organism-based; design: route intravenous, dose 3 mg/kg, time <=24; conditions: in vivo
[5] = AUC (0 to t) in Sprague-Dawley rat at 3 mg/kg, iv measured up to 24 hrs by LC-MS/MS analysis; format: ADME, organism-based; design: route intravenous, dose 3 mg/kg, time <=24; conditions: in vivo
[6] = Cmax in Sprague-Dawley rat at 3 mg/kg, po measured up to 24 hrs by LC-MS/MS analysis; format: ADME, organism-based; design: route oral, dose 3 mg/kg, time <=24; conditions: in vivo
[7] = Tmax in Sprague-Dawley rat at 3 mg/kg, po measured up to 24 hrs by LC-MS/MS analysis; format: ADME, organism-based; conditions: in vivo
[8] = Clearance in Sprague-Dawley rat at 3 mg/kg, po measured up to 24 hrs by LC-MS/MS analysis; format: ADME, organism-based; conditions: in vivo
[9] = Metabolic stability in rat liver microsomes assessed as half life at 100 uM/L measured upto 90 mins by LC-MS/MS analysis; format: ADME, Microsome
[10] = Metabolic stability in monkey liver microsomes assessed as half life at 100 uM/L measured upto 90 mins by LC-MS/MS analysis; format: ADME, Macaca mulatta, Microsome; conditions: rhesus monkey
[11] = Metabolic stability in dog liver microsomes assessed as intrinsic clearance at 100 uM/L measured upto 90 mins by LC-MS/MS analysis; format: ADME, Canis lupus familiaris, Microsome; conditions: 1.5 h
[12] = Metabolic stability in mouse liver microsomes assessed as intrinsic clearance at 100 uM/L measured upto 90 mins by LC-MS/MS analysis; format: ADME, Microsome; conditions: 1.5 h
Mus musculus [13] = assay: Antiarthritic activity in DBA/1J mouse model of collagen-induced arthritis at 20 mg/kg, po administered for 30 days and measured on day 30; format: functional, organism-based; conditions: time 30.0 day
Mus musculus [14] = assay: Antiarthritic activity in DBA/1J mouse model of collagen-induced arthritis assessed as reduction in edema formation at 20 mg/kg, po administered for 30 days and measured on day 30; format: functional, organism-based; conditions: time 30.0 day
Mus musculus [15] = assay: Antiarthritic activity in DBA/1J mouse model of collagen-induced arthritis assessed as reduction in paw thickness at 20 mg/kg, po administered for 30 days and measured on day 30; format: functional, organism-based; conditions: time 30.0 day
[16] = Toxicity in DBA/1J mouse assessed as effect on body weight at 20 mg/kg, po administered for 30 days and measured on day 30; format: organism-based; conditions: in vivo, 720 h, time 30 day
[17] = target: Tyrosine-protein kinase ITK/TSK (Homo sapiens, UniProt Q08881); assay: Inhibition of ITK (unknown origin)
Sequence of Tyrosine-protein kinase ITK/TSK (Q08881 whole entry): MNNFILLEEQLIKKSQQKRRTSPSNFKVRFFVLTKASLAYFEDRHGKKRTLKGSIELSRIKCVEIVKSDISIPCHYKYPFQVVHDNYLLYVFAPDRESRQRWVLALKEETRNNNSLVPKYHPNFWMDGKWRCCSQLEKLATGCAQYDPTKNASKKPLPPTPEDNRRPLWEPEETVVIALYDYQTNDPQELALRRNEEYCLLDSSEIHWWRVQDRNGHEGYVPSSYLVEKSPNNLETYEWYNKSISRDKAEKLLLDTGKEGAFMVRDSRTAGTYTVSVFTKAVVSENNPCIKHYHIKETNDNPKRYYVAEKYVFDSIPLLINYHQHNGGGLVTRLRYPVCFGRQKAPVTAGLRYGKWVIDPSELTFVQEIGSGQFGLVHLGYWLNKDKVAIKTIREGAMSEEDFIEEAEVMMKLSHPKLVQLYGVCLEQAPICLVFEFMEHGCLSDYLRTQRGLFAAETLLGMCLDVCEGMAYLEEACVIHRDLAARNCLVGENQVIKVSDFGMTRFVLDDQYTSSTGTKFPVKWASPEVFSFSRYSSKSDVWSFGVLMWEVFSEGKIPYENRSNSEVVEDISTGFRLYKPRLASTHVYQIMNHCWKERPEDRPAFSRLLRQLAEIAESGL

[18] = target: Tyrosine-protein kinase TXK (Homo sapiens, UniProt P42681); assay: Inhibition of TXK (unknown origin)
[19] = target: Receptor tyrosine-protein kinase erbB-2 (Homo sapiens, UniProt P04626); assay: Inhibition of ErBB2 (unknown origin)
[20] = target: Dual specificity mitogen-activated protein kinase kinase 1 (Homo sapiens, UniProt Q02750); assay: Inhibition of recombinant human MEK1 using inactivated ERK2 as substrate incubate for 60 mins by LANCE assay
Sequence of Dual specificity mitogen-activated protein kinase kinase 1 (Q02750 whole entry): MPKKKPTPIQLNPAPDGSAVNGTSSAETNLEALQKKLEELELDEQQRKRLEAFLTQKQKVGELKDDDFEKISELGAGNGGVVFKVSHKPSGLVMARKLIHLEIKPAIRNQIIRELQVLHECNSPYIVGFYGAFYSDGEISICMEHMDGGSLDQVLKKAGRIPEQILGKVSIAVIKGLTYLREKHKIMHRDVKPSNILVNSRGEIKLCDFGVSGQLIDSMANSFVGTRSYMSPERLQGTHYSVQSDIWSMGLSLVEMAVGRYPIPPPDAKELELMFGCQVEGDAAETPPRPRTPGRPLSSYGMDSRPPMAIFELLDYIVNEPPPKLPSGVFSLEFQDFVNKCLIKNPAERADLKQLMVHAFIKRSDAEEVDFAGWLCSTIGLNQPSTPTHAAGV

[21] = target: Ribosomal protein S6 kinase alpha-3 (Homo sapiens, UniProt P51812); assay: Inhibition of recombinant human RSK2 using Histone H3 full length as substrate incubate for 10 mins by LANCE assay
[22] = target: Proto-oncogene tyrosine-protein kinase receptor Ret (Homo sapiens, UniProt P07949); assay: Inhibition of RET (unknown origin)
Sequence of Proto-oncogene tyrosine-protein kinase receptor Ret (P07949 whole entry): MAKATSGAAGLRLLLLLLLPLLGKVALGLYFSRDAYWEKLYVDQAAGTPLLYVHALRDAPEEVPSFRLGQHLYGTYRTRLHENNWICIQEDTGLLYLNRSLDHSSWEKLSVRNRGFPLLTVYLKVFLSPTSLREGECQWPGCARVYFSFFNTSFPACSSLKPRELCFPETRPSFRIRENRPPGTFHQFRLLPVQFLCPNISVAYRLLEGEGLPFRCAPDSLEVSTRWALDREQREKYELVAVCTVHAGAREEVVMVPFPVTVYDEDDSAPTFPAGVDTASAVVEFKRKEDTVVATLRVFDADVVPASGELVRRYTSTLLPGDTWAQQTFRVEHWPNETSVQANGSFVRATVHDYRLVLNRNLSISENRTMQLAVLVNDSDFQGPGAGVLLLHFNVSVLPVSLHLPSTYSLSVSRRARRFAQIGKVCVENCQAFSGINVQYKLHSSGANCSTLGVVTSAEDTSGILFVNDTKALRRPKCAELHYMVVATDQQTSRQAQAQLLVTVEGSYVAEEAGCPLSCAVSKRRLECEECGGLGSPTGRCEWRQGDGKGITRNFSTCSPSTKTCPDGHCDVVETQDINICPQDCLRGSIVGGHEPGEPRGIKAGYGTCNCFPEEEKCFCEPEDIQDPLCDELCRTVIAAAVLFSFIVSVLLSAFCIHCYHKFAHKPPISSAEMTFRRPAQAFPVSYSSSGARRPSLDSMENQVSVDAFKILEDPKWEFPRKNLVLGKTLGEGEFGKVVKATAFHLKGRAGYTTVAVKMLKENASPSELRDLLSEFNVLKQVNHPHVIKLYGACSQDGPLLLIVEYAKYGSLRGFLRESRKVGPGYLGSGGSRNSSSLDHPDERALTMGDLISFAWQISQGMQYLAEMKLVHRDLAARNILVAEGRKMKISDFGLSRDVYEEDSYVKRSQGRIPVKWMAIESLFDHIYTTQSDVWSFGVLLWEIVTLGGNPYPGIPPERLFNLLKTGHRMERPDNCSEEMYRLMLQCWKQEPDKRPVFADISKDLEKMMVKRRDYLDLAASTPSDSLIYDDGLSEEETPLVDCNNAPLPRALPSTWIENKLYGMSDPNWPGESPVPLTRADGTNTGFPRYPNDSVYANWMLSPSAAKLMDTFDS

[23] = target: Mitogen-activated protein kinase kinase kinase 3 (Homo sapiens, UniProt Q99759); assay: Inhibition of MEKK3 (unknown origin)
Sequence of Mitogen-activated protein kinase kinase kinase 3 (Q99759 whole entry): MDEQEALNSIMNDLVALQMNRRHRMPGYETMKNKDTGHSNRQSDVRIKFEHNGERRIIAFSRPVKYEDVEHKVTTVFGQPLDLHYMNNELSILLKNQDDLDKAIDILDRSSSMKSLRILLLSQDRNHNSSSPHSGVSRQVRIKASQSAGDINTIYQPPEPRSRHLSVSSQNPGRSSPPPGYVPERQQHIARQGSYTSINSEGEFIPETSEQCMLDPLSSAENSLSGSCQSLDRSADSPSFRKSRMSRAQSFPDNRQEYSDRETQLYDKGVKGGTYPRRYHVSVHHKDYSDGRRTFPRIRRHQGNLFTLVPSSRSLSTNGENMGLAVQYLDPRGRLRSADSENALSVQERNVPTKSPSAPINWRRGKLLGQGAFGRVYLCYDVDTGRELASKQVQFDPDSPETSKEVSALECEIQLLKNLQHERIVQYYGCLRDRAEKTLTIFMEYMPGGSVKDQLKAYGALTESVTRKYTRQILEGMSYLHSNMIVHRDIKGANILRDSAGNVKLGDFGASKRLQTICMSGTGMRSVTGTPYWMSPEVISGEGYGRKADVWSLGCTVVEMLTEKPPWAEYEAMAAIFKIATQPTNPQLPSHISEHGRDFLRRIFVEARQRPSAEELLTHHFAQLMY

[24] = target: Dual specificity mitogen-activated protein kinase kinase 6 (Homo sapiens, UniProt P52564); assay: Inhibition of MKK6 (unknown origin)
Sequence of Dual specificity mitogen-activated protein kinase kinase 6 (P52564 whole entry): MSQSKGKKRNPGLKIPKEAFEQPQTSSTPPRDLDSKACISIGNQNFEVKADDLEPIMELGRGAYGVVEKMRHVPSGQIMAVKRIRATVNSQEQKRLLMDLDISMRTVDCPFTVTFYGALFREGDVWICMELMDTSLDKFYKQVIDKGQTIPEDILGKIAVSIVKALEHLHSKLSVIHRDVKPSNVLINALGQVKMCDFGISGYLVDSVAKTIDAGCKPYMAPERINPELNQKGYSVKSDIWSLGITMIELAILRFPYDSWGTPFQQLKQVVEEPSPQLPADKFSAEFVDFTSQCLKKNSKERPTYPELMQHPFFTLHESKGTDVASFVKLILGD

[25] = target: Ribosomal protein S6 kinase beta-1 (Homo sapiens, UniProt P23443); assay: Inhibition of recombinant human p70S6K using CREBtide as substrate incubate for 15 mins by LANCE assay
[26] = target: Tyrosine-protein kinase Yes (Homo sapiens, UniProt P07947); assay: Inhibition of recombinant human YES using biotinyl-beta Abeta-Abeta AYQAEENTYDEYEN as substrate incubate for 30 mins by LANCE assay
Sequence of Tyrosine-protein kinase Yes (P07947 whole entry): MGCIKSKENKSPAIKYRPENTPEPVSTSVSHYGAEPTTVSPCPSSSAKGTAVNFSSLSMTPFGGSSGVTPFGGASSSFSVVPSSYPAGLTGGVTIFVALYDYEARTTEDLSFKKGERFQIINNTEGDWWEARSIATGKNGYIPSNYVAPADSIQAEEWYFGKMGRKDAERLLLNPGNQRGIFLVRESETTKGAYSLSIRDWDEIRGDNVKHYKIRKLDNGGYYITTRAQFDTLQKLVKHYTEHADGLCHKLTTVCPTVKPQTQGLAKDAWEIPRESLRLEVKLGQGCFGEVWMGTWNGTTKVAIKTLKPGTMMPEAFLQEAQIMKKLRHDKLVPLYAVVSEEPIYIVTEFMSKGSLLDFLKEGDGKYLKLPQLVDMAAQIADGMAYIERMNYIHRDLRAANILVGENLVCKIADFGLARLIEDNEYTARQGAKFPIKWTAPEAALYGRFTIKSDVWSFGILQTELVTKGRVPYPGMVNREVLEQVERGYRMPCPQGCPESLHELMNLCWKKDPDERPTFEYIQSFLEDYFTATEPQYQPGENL

[27] = target: Tyrosine-protein kinase Lck (Homo sapiens, UniProt P06239); assay: Inhibition of recombinant human LCK using Ulight-Poly GAT[EAY(1:1:1)]n as substrate incubate for 10 mins by LANCE assay
Sequence of Tyrosine-protein kinase Lck (P06239 whole entry): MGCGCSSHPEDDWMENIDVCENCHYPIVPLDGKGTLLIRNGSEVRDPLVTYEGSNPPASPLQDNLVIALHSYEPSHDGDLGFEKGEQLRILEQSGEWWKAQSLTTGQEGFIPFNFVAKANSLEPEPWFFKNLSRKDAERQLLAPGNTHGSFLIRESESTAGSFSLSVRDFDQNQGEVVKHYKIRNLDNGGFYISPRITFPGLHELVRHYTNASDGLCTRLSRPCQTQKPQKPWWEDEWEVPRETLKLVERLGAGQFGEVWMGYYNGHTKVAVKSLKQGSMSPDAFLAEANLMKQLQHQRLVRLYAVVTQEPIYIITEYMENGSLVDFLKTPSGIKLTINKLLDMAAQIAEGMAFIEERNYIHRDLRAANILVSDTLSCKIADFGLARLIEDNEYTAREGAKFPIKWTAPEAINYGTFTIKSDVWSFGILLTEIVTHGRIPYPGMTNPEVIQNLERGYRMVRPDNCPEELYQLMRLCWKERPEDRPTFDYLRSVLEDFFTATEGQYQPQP

[28] = target: Tyrosine-protein kinase Lyn (Homo sapiens, UniProt P07948); assay: Inhibition of recombinant human LYN using biotinyl-beta Abeta-Abeta AKVEKIGEGTYGVVYK as substrate incubate for 120 mins by LANCE assay
[29] = target: Mitogen-activated protein kinase kinase kinase 7 (Homo sapiens, UniProt O43318); assay: Inhibition of recombinant human TAK1 using Ulight-FLGFTYVAP as substrate incubate for 90 mins by LANCE assay
[30] = target: Tyrosine-protein kinase SYK (Homo sapiens, UniProt P43405); assay: Inhibition of SYK (unknown origin)
[31] = target: T1, Tyrosine-protein kinase BTK
Description: Reversible inhibition of BTK (unknown origin) assessed as association rate constant by caliper mobility shift assay

[32] = Toxicity in BALB/c mouse assessed as mouse survival at 2 g/kg, po measured after 7 days of administration; conditions: in vivo, 168 h
[33] = Toxicity in BALB/c mouse assessed as clinical signs at 2 g/kg, po measured after 7 days of administration; conditions: in vivo, 168 h
[34] = Toxicity in BALB/c mouse assessed as normal behavior at 2 g/kg, po measured after 7 days of administration; conditions: in vivo, 168 h
[35] = Toxicity in BALB/c mouse assessed as effect on liver at 2 g/kg, po measured after 7 days of administration by histopathological analysis; conditions: in vivo, 168 h
[36] = Toxicity in BALB/c mouse assessed as effect on spleen at 2 g/kg, po measured after 7 days of administration by histopathological analysis; conditions: in vivo, 168 h

Work on C=CC(=O)N1CCC(Cn2cc(-c3ccc4c(c3)OCO4)c3c(N)ncnc32)CC1 yielded an IC50 (HEK293) of 34.2 µM, an IC50 (THP-1) of 38.9 µM and an IC50 (L02) of 31.3 µM. The inhibition [1] was “Dose-dependent effect”, the inhibition [2] was “inactive” and the inhibition [3] was “Active”. The Cmax [4] was 3130 ng/mL, the AUCt [5] was 2522.28 ng·h/mL and the Cmax [6] was 258 ng/mL. It also gave a Tmax [7] of 0.96 h, a CL/F [8] of 45.8 mL/min/kg and a half-life at 100 µM [9] of 3.12 h. The half-life at 100 µM [10] was 2.82 h, the CLH [11] was 4.4 µL/min/mg and the CLH [12] was 5.4 µL/min/mg. For the same compound, the Activity (Mus musculus [13]) was “Active”, the Activity (Mus musculus [14]) was “Active” and the Activity (Mus musculus [15]) was “Active”. For the same compound, the Activity [16] was “Non-Toxic”, the IC50 [17] was > 10 µM and the IC50 [18] was 0.331 µM. For the same compound, the IC50 [19] was > 10 µM, the IC50 [20] was > 10 µM and the IC50 [21] was > 10 µM. For the same compound, the IC50 [22] was 0.64 µM, the IC50 [23] was > 10 µM and the IC50 [24] was > 10 µM. For the same compound, the IC50 [25] was > 10 µM, the IC50 [26] was 0.146 µM and the IC50 [27] was 0.636 µM. The IC50 [28] was 0.259 µM, the IC50 [29] was > 10 µM and the IC50 [30] was > 10 µM. For the same compound, the Ka [31] was 9630 M⁻¹ s⁻¹, the Activity [32] was “Non-Toxic” and the Activity [33] was “Non-Toxic”. For the same compound, the Activity [34] was “Non-Toxic”, the Activity [35] was “Non-Toxic” and the Activity [36] was “Non-Toxic”.
